From PMC6933707, “Palmitoylethanolamide counteracts substance P-induced mast cell activation in vitro by stimulating diacylglycerol lipase activity” (Journal of Neuroinflammation, 2019) come the findings set out here.

Read-outs that look alike come from different tables or passages of the source.

For data set [1], the system named is RBL-2H3 cells. Type of data set: cell-based. Conditions: 15 min. As for the experimental part:
The relative number of live and dead cells was measured after 15 min in RBL-2H3 cells (2 × 10^5 cells/well) stimulated with SP (10 μM) and treated with PEA (10 μM) by using MultiTox-Glo multiplex cytotoxicity kit, according to the manufacturer’s instructions (Promega Italia). Relative fluorescence units (RFU) were measured by using a GloMax Multi Detection System (Promega Italia).

The next data set concerns the target T1, human recombinant DAGL-α (Homo sapiens, UniProt Q9Y4D2).
T1 construct: expressed in transfected cells; host or cells: COS-7
T1 sequence (Q9Y4D2 1-1042): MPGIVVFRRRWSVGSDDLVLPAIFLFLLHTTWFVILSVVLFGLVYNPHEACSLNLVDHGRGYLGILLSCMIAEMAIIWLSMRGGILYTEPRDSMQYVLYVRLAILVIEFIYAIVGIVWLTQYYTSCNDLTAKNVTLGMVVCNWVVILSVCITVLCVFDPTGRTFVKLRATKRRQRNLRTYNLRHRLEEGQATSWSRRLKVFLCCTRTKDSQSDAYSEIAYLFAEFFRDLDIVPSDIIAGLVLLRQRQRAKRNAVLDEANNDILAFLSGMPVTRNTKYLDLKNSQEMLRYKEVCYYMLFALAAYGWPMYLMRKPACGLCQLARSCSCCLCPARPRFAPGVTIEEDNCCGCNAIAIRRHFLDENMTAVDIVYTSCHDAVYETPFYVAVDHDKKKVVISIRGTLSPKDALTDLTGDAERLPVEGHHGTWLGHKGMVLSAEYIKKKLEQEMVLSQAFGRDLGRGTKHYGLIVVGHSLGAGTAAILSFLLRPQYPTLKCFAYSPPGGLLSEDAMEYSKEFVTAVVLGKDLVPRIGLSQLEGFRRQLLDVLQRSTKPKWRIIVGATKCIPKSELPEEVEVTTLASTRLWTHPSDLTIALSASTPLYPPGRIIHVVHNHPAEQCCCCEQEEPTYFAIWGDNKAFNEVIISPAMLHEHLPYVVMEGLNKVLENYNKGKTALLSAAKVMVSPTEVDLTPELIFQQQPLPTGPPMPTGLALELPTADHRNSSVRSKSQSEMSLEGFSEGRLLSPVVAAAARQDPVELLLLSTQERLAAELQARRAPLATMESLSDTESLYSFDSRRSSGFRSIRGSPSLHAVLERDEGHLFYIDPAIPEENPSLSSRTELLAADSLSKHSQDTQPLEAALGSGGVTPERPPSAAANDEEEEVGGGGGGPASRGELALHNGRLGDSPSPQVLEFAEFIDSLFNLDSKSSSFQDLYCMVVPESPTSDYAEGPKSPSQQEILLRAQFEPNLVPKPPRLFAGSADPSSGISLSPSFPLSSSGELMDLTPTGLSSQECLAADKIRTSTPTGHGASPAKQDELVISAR
The data set can be described thus: DAGL-α enzyme activity assay (COS-7 membranes; radiolabelled substrate or 2-AG by LC-MS). Type of data set: biochemical. Here is the method:
DAGL-α enzyme activity was assessed as previously reported by using membrane preparations (50 μg of protein) obtained from COS-7 cells overexpressing the human recombinant DAGL-α enzyme, and 1-[^14C]oleoyl-2-arachidonoylglycerol (1.0 mCi/mmol, 25 μM, synthesized as previously reported, as substrate in the presence of vehicle or increasing concentrations of PEA (0.1–25 μM) in Tris-HCl 50 mM pH 7.4. After the incubation (20 min at 37 °C), lipids were extracted with two volumes of CHCl3/CH3OH (2:1, v/v). The organic extracts, lyophilized under vacuum, were used to quantify the levels of 2-AG by LC-APCI-MS (as described above), or purified by using TLC on silica on polypropylene plates eluted in CHCl3/CH3OH/NH4OH (85:15:0.1%, v/v) as the eluting solvent. Bands corresponding to [^14C]-oleic acid were cut and their radioactivity was measured by using Liquid Scintillation Analyzer (TRI-carb 2100TR). Data were expressed as % of DAGL-α stimulation. To quantify the levels of 2-AG by LC-APCI-MS a non-radiolabeled 1-oleoyl-2-arachidonoylglycerol substrate was used.

The test system of data set [2] is RBL-2H3 cells. The experiment in a line: Histamine release assay (ELISA). Type of data set: cell-based, rat. As for the experimental part:
RBL-2H3 cells were plated into 24-well culture dishes at a cell density of 2 × 10^5 cells per well, or into 6-well culture dishes at a cell density of 9 × 10^5 cells per well, for 1 day at 37 °C in 5% CO2 atmosphere. After 1 day, RBL-2H3 cells were stimulated with SP (10 μM) or vehicle (water) and incubated for 15 min at 37 °C in 5% CO2 atmosphere.
SP-stimulated RBL-2H3 cells (2 × 10^5 cells/well) were treated with PEA (10 μM) or vehicle (methanol) for 15 min at 37 °C in 5% CO2 atmosphere. SP-stimulated RBL-2H3 cells were also treated with a CB2 antagonist, AM630 (0.1 μM), in the presence and absence of PEA (10 μM), or JWH133 (0.1 μM) (a CB2 synthetic agonist), and incubated for the indicated time. SP-stimulated RBL-2H3 cells were also treated with 2-AG (0.1 and 1 μM), or co-treated with PEA (0.1 μM) and 2-AG (0.1 μM), and incubated for the indicated time. SP-stimulated RBL-2H3 cells were also co-treated with PEA (10 μM) and OMDM188 (10 μM) (a DAGL inhibitor), and incubated for the indicated time. After 15 min, the supernatants were collected and the amounts of secreted histamine were measured by using a histamine ELISA kit according to the manufacturer’s instructions (Abnova) and by using a reader GENios Pro (Tecan). Data were expressed as nanograms per milliliter of histamine.

Setting [3] is: SP (10 μM)-stimulated cells, PEA 10 μM, vs vehicle-stimulated cells.
Setting [4] is: substance alone 10 μM, vs vehicle.

Turning to `CCCCCCCCCCCCCCCC(=O)NCCO` [PEA, Palmitoylethanolamide], the cell viability result with RBL-2H3 cells [1] (setting [3]) is recorded as “did not alter”; in the data set on RBL-2H3 cells [1] (setting [4]), “No effect”. For the same molecule, the results for the cytotoxicity entry with RBL-2H3 cells [1] (setting [3]) and in the data set with RBL-2H3 cells [1] (setting [4]) were “did not alter” and “No effect”, respectively. The “elevation of levels of 2-AG produced by DAGL-α (LC-MS)” value at human recombinant DAGL-α (PEA 25 μM + substrate, compared to membrane preparations incubated alone (no substrate, no PEA)) turned out to be 5.6 fold; on human recombinant DAGL-α (PEA 25 μM, compared to membrane preparations incubated with the substrate 1-oleoyl-2-arachidonoylglycerol and without PEA), 1.4 fold. The EC50 (commonly the concentration that produces a half-maximal response) at human recombinant DAGL-α (membranes of COS-7 cells over-expressing DAGL-α, 20 min 37 °C, read-out: EC50, stimulation of DAGL-α activity) is 17.3 ± 2.35 µM. Also, the histamine release entry in the data set on RBL-2H3 cells [2] (SP (10 μM)-stimulated cells, compound 0.1 μM, 15 min, vs SP + vehicle) is recorded as “comparable”; in the data set with RBL-2H3 cells [2] (SP (10 μM)-stimulated cells, compound 10 μM, 15 min, vs SP + vehicle) it was “inhibited the release of histamine”; in the data set on RBL-2H3 cells [2] (SP-stimulated cells co-treated with PEA 0.1 μM and 2-AG 0.1 μM, 15 min), “able to reduce”; in the data set on RBL-2H3 cells [2] (SP-stimulated cells co-treated with PEA 10 μM and AM630 0.1 μM, vs SP + vehicle or SP + AM630), “comparable”; with RBL-2H3 cells [2] (substance alone 10 μM, 15 min, vs vehicle-treated cells) it was “No effect”.
